Measurements: BindingDB's records for doi:10.1021/jm00382a015 (1985)

Target: Adenosylhomocysteinase (Bos taurus)
Test: Binding affinity against S-adenosyl-homocysteine hydrolase

| SMILES | Ki [µM] |
| --- | --- |
| Nc1ncnc2c1nnn2C1CC(CO)C(O)C1O (configuration not stated) [3-(7-amino-3H-[1,2,3]triazolo[4,5-d]pyrimidin-3-yl)-5-hydroxymethyl-1,2-cyclopentanediol] | 22 |
| Nc1nccc2c1ncn2[C@@H]1C[C@H](CO)[C@@H](O)[C@H]1O [3-DEAZAARISTEROMYCIN A] | 0.004 |
